Measured values from patent US9068977B2, “Non-linear rotation rates of remotely driven particles and uses thereof” (THE REGENTS OF THE UNIVERSITY OF MICHIGAN, priority 2007, dated 2015).

Assays:
E. coli K-12 bacteria = experiment: Effect of antibiotic on bacterial growth, monitored by nonlinear rotation of magnetic particles; format: cell-based; details: 5% w/v Ampicillin antibiotic solution; cluster of 40 μm magnetic particles attached to small colony; Luria Broth (Miller) Growth Media; FIG. 9 bottom curve
Text: The top curve is for several particles attached to a small colony of E. coli K-12 bacteria in Luria Broth (Miller) Growth Media. The rotational period increases over time, indicating bacterial grow. […] In certain configurations, especially when particles are at an interface, such as an air-liquid interface, the nonlinear rotation may occur in a plane perpendicular to the plane of the external driving magnetic field. This type of nonlinear rotation occurred in the above exemplary measurement.

E. coli = experiment: Growth of bacteria attached to a magnetic microsphere, monitored by nonlinear rotation period; format: cell-based; details: bacteria exposed to isopropyl alcohol (70%) for 15 minutes; control, FIG. 4d circles; growth media alone gave 75% increase over 25 min
Text: Rotation rates were observed under fluorescent, reflection, and bright-field microscopy. FIG. 4(a) was obtained by measuring the average rotation rate of a magnetic microsphere (with an attached E. coli) for increasing magnetic driving frequencies. The critical frequency, where the magnetic particle goes from synchronous with driving field to asynchronous (nonlinear), occurs abruptly at 1.27 Hz. Measurements for (b), (c), and (d) were then made in this nonlinear regime. Bacteria attached to magnetic microspheres were optically detected by fluorescence of DsRed fluorescent protein transformed bacteria.
The magnetic microspheres with one bacterium attached rotated 33.8 times slower than the blank microspheres. […] There was an incremental 75% increase in rotation period over 25 min.

CC1(C)S[C@@H]2[C@H](NC(=O)[C@H](N)c3ccccc3)C(=O)N2[C@H]1C(=O)O [Ampicillin]
normalized rotational period over time (indicator of bacterial growth) (E. coli K-12 bacteria): decreases or stays constant over time

CC(C)O [isopropyl alcohol]
change in normalized rotation period (growth of attached bacteria) (E. coli): an increase just within the limits of the error bars
